The text below walks through data of ChEMBL document CHEMBL1152737, “Synthesis and biological evaluation of fused thio- and selenopyrans as new indolocarbazole analogues with aryl hydrocarbon receptor affinity” (Bioorg Med Chem, 2009).

The series relates to Aryl hydrocarbon receptor (Cavia porcellus). Put plainly: Activation of AhR expressed in guinea pig cytosolic fractions over expressed with XRE by ELISA based Ah-immunoassay relative to TCDD. On the technique in general: An ELISA detects its analyte on a solid surface through an enzyme-linked reagent.
As for `Cc1c2c3ccccc3nc-2sc2[nH]c3ccccc3c12`, the Activity is 0.36.

`Cc1c2c3ccccc3nc-2[se]c2[nH]c3ccccc3c12`: the Activity was determined as 0.38.

For `c1ccc2c3cc4c([nH]c5ccccc54)[se]c-3nc2c1`, the Activity is given as 0.32.

`c1ccc2c3cc4c([nH]c5ccccc54)sc-3nc2c1` registered an Activity of 0.29.

`O=c1c2c([nH]c3ccccc32)sc2[nH]c3ccccc3c12` yielded an Activity of 0.039.

`c1ccc2c3cc4[nH]c5ccccc5c4sc-3nc2c1`: the Activity amounted to 0.132.

As to `c1ccc2c(c1)[nH]c1cc3c(cc12)[nH]c1ccccc13`, the Activity was 1.48.

Regarding `COc1ccc2nc3[se]c4[nH]c5ccc(OC)cc5c4c(C)c-3c2c1`, the Activity was 0.013.

Turning to `CC1(C)c2c([nH]c3ccccc23)Sc2[nH]c3ccccc3c21`, the Activity is 0.0033.

Take `COc1ccc2nc3[se]c4[nH]c5ccc(OC)cc5c4cc-3c2c1`: the Activity was found to be 0.009.

For the compound `C1=Cc2sc3ccccc3c2Sc2c1sc1ccccc21`, the Activity turned out to be 0.055.

`C1=Cc2sc3ccccc3c2[Se]c2c1sc1ccccc21` returned an Activity of 0.018.
